Tests used:
[1] = target: Genome polyprotein (dengue virus type 2) (UniProt P29990); assay: Inhibition of DENV-2 NS2B-NS3 protease at 50 uM by biochemical enzymatic assay relative to control
Genome polyprotein [2] = target: T1, Genome polyprotein (dengue virus type 2, UniProt P29990); assay: Inhibition of DENV-2 NS2B-NS3 protease by biochemical enzymatic assay
[3] = target: Genome polyprotein (West Nile virus) (UniProt P06935); assay: Inhibition of West Nile virus NS2B-NS3 protease at 50 uM by biochemical enzymatic assay relative to control
[4] = target: Prothrombin (Homo sapiens) (UniProt P00734); assay: Inhibition of Thrombin (unknown origin) at 25 uM by biochemical assay relative to control
Trypsin [5] = target: T2, Trypsin (Homo sapiens, UniProt P07477+P07478+P35030); assay: Inhibition of trypsin (unknown origin) at 50 uM by biochemical assay relative to control; assay type: protein assay
[6] = Cytotoxicity against human HeLa cells by CellTiter-Blue assay; assay type: toxicity, cell-based
[7] = Metabolic stability in rat liver microsomes measured for 120 mins by UV-based HPLC analysis; assay type: ADME, Microsome; settings: 2 h
Trypsin [8] = target: T2, Trypsin; assay: Stability of the compound assessed as trypsin (unknown origin) mediated compound degradation incubated for 60 mins by UV-based HPLC analysis; assay type: ADME, protein assay; settings: 1 h
[9] = Stability of the compound assessed as alpha-chymotrypsin (unknown origin) mediated compound degradation incubated for 60 mins by UV-based HPLC analysis; assay type: ADME; settings: human, 1 h
Genome polyprotein [10] = target: T3, Genome polyprotein (West Nile virus, UniProt P06935); assay: Inhibition of West Nile virus NS2B-NS3 protease by biochemical enzymatic assay
Genome polyprotein [11] = target: T1, Genome polyprotein; assay: Competitive inhibition of DENV-2 NS2B-NS3 protease assessed as inhibition constant by Cheng-Prusoff plot analysis
Genome polyprotein [12] = target: T3, Genome polyprotein; assay: Inhibition of West Nile virus NS2B-NS3 protease assessed as inhibition constant
[13] = Metabolic stability in rat liver microsomes assessed as parent compound remaining measured for 120 mins by UV-based HPLC analysis; assay type: ADME, Microsome; settings: read-out: Stability

Sequence of Genome polyprotein (West Nile virus) (P06935 whole entry): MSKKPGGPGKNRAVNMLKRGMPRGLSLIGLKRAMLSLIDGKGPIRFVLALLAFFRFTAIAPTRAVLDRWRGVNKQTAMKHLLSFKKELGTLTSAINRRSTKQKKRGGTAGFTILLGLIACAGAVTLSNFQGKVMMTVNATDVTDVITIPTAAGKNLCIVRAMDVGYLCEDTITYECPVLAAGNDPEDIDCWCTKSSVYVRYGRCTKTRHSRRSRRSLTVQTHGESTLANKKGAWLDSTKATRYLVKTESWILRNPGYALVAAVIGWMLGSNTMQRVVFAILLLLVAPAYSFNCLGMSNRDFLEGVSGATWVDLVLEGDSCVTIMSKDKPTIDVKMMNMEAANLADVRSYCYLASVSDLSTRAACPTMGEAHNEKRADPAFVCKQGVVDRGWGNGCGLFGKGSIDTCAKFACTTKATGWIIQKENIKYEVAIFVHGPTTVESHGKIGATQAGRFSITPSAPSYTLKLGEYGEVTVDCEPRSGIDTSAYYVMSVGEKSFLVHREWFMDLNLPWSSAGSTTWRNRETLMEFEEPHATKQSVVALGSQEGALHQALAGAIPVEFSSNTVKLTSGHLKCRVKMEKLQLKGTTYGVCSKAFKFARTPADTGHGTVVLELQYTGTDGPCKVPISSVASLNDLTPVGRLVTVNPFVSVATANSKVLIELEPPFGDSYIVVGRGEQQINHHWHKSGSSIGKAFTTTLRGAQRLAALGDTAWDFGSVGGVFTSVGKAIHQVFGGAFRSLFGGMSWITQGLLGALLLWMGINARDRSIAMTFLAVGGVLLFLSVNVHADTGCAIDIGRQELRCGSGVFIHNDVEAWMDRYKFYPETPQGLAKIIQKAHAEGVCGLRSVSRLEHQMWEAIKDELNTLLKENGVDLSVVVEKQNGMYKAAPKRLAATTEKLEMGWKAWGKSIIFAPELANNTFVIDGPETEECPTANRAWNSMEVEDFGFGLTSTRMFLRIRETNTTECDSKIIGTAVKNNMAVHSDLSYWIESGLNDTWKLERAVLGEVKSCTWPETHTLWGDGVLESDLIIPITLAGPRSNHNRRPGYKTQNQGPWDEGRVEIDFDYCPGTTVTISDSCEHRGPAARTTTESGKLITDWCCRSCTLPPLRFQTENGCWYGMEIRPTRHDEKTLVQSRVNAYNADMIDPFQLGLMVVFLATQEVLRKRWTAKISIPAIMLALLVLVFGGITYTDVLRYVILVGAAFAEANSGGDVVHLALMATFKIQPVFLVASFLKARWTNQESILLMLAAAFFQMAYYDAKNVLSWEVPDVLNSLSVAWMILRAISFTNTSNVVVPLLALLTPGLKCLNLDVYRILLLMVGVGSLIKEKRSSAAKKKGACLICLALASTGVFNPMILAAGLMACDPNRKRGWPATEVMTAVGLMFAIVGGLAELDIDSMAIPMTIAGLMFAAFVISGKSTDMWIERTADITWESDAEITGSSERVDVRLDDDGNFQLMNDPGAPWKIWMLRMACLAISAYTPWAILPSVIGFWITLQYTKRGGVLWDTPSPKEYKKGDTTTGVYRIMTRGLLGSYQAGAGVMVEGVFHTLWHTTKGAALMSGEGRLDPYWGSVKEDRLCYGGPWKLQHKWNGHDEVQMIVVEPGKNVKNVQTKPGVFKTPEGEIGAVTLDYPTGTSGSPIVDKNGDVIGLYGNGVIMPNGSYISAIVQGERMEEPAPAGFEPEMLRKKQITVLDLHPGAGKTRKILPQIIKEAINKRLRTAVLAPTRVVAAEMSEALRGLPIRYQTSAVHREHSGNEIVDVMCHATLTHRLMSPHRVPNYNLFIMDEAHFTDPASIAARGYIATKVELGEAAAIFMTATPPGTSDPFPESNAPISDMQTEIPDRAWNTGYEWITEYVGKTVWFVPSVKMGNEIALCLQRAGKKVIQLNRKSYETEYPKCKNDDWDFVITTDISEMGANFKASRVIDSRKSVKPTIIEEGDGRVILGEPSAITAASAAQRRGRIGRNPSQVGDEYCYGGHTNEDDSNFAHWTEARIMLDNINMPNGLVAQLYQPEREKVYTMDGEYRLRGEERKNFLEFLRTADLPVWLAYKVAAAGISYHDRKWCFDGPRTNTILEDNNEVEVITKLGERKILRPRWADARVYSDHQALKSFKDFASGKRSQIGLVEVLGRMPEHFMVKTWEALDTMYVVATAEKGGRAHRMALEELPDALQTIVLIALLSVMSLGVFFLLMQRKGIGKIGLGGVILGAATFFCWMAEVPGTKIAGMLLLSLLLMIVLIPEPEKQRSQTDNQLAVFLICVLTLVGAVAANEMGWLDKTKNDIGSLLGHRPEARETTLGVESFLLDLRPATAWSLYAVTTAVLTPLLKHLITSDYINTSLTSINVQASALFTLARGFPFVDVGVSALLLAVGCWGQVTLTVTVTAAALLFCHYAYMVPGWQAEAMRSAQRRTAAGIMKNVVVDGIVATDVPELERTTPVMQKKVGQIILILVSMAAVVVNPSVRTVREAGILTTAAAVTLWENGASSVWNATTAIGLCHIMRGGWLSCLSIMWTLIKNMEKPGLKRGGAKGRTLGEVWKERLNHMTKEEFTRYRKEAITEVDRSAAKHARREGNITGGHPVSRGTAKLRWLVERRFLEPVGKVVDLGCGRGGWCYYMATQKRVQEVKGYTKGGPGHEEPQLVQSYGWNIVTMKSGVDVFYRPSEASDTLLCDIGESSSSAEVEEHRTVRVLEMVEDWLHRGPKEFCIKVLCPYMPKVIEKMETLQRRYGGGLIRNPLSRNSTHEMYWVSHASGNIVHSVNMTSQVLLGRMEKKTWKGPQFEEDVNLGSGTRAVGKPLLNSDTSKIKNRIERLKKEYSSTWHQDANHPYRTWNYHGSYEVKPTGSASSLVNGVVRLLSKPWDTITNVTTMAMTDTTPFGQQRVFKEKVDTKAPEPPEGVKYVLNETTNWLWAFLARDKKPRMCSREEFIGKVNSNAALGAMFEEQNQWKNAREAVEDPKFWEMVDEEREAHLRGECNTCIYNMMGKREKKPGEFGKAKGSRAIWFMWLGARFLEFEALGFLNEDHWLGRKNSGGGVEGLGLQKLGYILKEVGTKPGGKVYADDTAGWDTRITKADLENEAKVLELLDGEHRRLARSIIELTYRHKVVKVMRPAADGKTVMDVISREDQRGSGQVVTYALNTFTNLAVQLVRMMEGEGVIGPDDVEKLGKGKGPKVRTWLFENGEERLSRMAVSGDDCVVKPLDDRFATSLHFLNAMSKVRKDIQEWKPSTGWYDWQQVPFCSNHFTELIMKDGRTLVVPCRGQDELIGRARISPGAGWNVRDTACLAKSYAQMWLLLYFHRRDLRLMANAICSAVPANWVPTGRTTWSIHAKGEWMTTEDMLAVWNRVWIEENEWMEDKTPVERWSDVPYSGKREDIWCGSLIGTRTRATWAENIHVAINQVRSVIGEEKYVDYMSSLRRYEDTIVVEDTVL
T3 sequence (P06935 1371-1501 limits assumed): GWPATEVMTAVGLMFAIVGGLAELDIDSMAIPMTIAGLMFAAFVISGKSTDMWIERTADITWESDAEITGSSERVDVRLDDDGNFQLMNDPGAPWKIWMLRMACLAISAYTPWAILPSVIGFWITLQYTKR
T3 sequence (P06935 1502-2120 limits assumed): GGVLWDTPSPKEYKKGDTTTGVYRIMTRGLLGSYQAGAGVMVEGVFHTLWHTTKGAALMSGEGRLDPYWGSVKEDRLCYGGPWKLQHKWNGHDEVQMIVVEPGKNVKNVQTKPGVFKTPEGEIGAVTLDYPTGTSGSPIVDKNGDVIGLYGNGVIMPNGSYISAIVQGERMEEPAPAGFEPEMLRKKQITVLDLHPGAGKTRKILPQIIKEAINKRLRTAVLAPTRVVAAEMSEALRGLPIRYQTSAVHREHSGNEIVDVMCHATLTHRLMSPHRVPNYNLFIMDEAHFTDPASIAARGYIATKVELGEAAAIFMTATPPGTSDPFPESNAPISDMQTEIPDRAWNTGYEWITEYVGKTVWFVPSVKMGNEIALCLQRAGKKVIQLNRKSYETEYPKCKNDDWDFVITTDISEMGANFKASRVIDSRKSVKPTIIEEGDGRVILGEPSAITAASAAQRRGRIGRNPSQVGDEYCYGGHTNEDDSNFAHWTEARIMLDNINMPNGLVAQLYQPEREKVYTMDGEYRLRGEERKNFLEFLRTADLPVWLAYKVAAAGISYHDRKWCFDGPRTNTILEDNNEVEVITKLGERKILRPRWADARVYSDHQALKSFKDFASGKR

Row | Compound | inhibition [1] | IC50 (Genome polyprotein [2]) | inhibition [3] | inhibition [4] | inhibition (Trypsin [5]) | CC50 [6] | Stability [7] | Stability (Trypsin [8]) | Stability [9] | IC50 (Genome polyprotein [10]) | Ki (Genome polyprotein [11]) | Ki (Genome polyprotein [12]) | remaining at 2 h [13]
1 | CN([C@@H](Cc1ccc(C(=N)N)cc1)C(=O)N[C@@H](CCCCN)C(=O)N[C@@H](C(N)=O)c1ccc(O)cc1)S(=O)(=O)c1ccccc1 | 101% | 0.44 µM | 33.7% | 30.3% | 14.7% | – | – | – | – | – | – | – | –
2 | Cc1ccc(S(=O)(=O)N(C)[C@@H](Cc2ccc(NC(=N)N)cc2)C(=O)N[C@@H](CCCCN)C(=O)N[C@@H](C(N)=O)c2ccccc2)cc1 | 95% | 1.63 µM | < 10% | < 10% | 19.9% | > 50 µM | – | – | – | – | – | – | –
3 | CN([C@@H](CCCNC(=N)N)C(=O)N[C@@H](CCCCN)C(=O)N[C@@H](C(N)=O)c1ccccc1)S(=O)(=O)c1ccccc1 | 80.6% | 11 µM | < 10% | < 10% | < 10% | > 50 µM | Stable | Stable | Stable | – | – | – | –
4 | CN([C@@H](Cc1cccc(N)c1)C(=O)N[C@@H](CCCCN)C(=O)N[C@@H](C(N)=O)c1ccccc1)S(=O)(=O)c1ccccc1 | 20.4% | – | < 10% | < 10% | < 10% | – | – | – | – | – | – | – | –
5 | CN([C@@H](Cc1ccc(C(=N)N)cc1)C(=O)N[C@@H](CCCCN)C(=O)N[C@@H](C(N)=O)c1ccc(OCc2ccc(Cl)c(Cl)c2)cc1)S(=O)(=O)c1ccccc1 | 98.6% | 0.089 µM | 84.8% | 15.8% | 11% | 45.3 µM | – | – | – | 12.1 µM | 0.078 µM | 5.1 µM | –
6 | Cc1ccc(S(=O)(=O)N[C@@H](CCCNC(=N)N)C(=O)N[C@@H](CCCCN)C(=O)N[C@@H](C(N)=O)c2ccccc2)cc1 | 50.5% | – | 17.7% | < 10% | 21.6% | > 50 µM | – | – | – | – | – | – | –
7 | CN(C)c1cccc2c(S(=O)(=O)N[C@@H](CCCNC(=N)N)C(=O)N[C@@H](CCCCN)C(=O)N[C@@H](C(N)=O)c3ccccc3)cccc12 | 35.3% | – | < 10% | 2.3% | 10.7% | > 50 µM | – | – | – | – | – | – | –
8 | Cc1ccc(S(=O)(=O)N(C)[C@@H](Cc2cccc(N)c2)C(=O)N[C@@H](CCCCN)C(=O)N[C@@H](C(N)=O)c2ccccc2)cc1 | 23.2% | – | < 10% | < 10% | < 10% | – | – | – | – | – | – | – | –
9 | CN([C@@H](Cc1cccc(NC(=N)N)c1)C(=O)N[C@@H](CCCCN)C(=O)N[C@@H](C(N)=O)c1ccccc1)S(=O)(=O)c1ccccc1 | 78.6% | 13.2 µM | 10.1% | 30.2% | < 10% | – | – | – | – | – | – | – | –
10 | N=C(N)NCCC[C@H](NS(=O)(=O)c1ccccc1)C(=O)N[C@@H](CCCCN)C(=O)N[C@@H](C(N)=O)c1ccccc1 | 44.3% | – | 22.3% | < 10% | < 10% | > 50 µM | Stable | – | – | – | – | – | –
11 | CN([C@@H](Cc1ccc(NC(=N)N)cc1)C(=O)N[C@@H](CCCCN)C(=O)N[C@@H](C(N)=O)c1ccccc1)S(=O)(=O)c1ccccc1 | 97.6% | 2.72 µM | 14.9% | < 10% | 17.1% | > 50 µM | Stable | Stable | Stable | – | – | – | –
12 | CN([C@@H](Cc1ccc(/C(N)=N/O)cc1)C(=O)N[C@@H](CCCCN)C(=O)N[C@@H](C(N)=O)c1ccccc1)S(=O)(=O)c1ccccc1 | 58.5% | – | < 10% | < 10% | < 10% | > 50 µM | – | – | – | – | – | – | –
13 | CN([C@@H](Cc1ccc(C(=N)N)cc1)C(=O)N[C@@H](CCCCN)C(=O)N[C@H](C(N)=O)c1ccc(OCc2ccccc2)cc1)S(=O)(=O)c1ccccc1 | 102% | 0.2 µM | 20.2% | 23.4% | 34.3% | – | – | – | – | – | – | – | –
14 | Cc1cc(C)c(S(=O)(=O)N[C@@H](CCCNC(=N)N)C(=O)N[C@@H](CCCCN)C(=O)N[C@@H](C(N)=O)c2ccccc2)c(C)c1 | 35.9% | – | < 10% | < 10% | < 10% | > 50 µM | – | – | – | – | – | – | –
15 | CN([C@@H](Cc1ccc(C(=N)N)cc1)C(=O)N[C@@H](CCCCN)C(=O)N[C@@H](C(N)=O)c1ccc(OCc2ccc(C(F)(F)F)cc2)cc1)S(=O)(=O)c1ccccc1 | 99.2% | 0.12 µM | 80.4% | 15.8% | 18.3% | 75.3 µM | – | – | – | 13.9 µM | – | – | –
16 | N=C(N)Nc1ccc(C[C@H](NS(=O)(=O)c2ccccc2)C(=O)N[C@@H](CCCCN)C(=O)N[C@@H](C(N)=O)c2ccccc2)cc1 | 52.6% | – | < 10% | < 10% | < 10% | > 50 µM | Stable | Stable | Stable | – | – | – | –
17 | CN([C@@H](CCCNC(=N)N)C(=O)N[C@@H](CCCCN)C(=O)N[C@@H](C(N)=O)c1ccccc1)S(=O)(=O)c1ccc(Cl)cc1 | 75.1% | 19.4 µM | < 10% | < 10% | 13% | – | – | – | – | – | – | – | –
18 | N=C(N)NCCC[C@H](NC(=O)c1ccccc1)C(=O)N[C@@H](CCCCN)C(=O)N[C@@H](C(N)=O)c1ccc(OCc2ccccc2)cc1 | – | – | – | < 10% | – | > 50 µM | – | – | – | – | – | – | –
19 | CN([C@@H](Cc1ccc(C(=N)N)cc1)C(=O)N[C@@H](CCCCN)C(=O)N[C@@H](C(N)=O)c1ccc(OCc2ccccc2)cc1)S(=O)(=O)c1ccccc1 | 99% | 0.11 µM | 68.9% | 22.9% | 22% | > 200 µM | – | – | – | 22.2 µM | 0.092 µM | – | –
20 | CC(C)c1cc(C(C)C)c(S(=O)(=O)N[C@@H](CCCNC(=N)N)C(=O)N[C@@H](CCCCN)C(=O)N[C@@H](C(N)=O)c2ccccc2)c(C(C)C)c1 | 20.2% | – | < 10% | < 10% | < 10% | > 50 µM | – | – | – | – | – | – | –
21 | N=C(N)NCCC[C@H](NS(=O)(=O)C1CCCCC1)C(=O)N[C@@H](CCCCN)C(=O)N[C@@H](C(N)=O)c1ccccc1 | 65.2% | – | < 10% | < 10% | 17.4% | > 50 µM | – | – | – | – | – | – | –
22 | CN(C)C(=O)COC(=O)Cc1ccc(OC(=O)c2ccc(NC(=N)N)cc2)cc1 | – | – | – | 99% | – | – | – | – | – | – | – | – | –
23 | CC[C@H](NC(=O)[C@H](Cc1cccc(NC(=N)N)c1)N(C)S(=O)(=O)c1ccc(C)cc1)C(=O)N[C@@H](C(N)=O)c1ccccc1 | 74.3% | 18.9 µM | < 10% | 18.1% | < 10% | – | – | – | – | – | – | – | –
24 | N=C(N)NCCC[C@H](NS(=O)(=O)c1ccc([N+](=O)[O-])cc1)C(=O)N[C@@H](CCCCN)C(=O)N[C@@H](C(N)=O)c1ccccc1 | 24.7% | – | 18.4% | < 10% | 30.6% | > 50 µM | – | – | – | – | – | – | –
25 | CN([C@@H](Cc1ccc(C(=N)N)cc1)C(=O)N[C@@H](CCCCN)C(=O)N[C@@H](C(N)=O)c1ccccc1)S(=O)(=O)c1ccccc1 | 98.9% | 0.21 µM | 48.7% | 19.6% | 19.2% | > 200 µM | – | Stable | Stable | – | – | – | 100%
26 | N=C(N)NCCC[C@H](NS(=O)(=O)c1ccc(Cl)cc1)C(=O)N[C@@H](CCCCN)C(=O)N[C@@H](C(N)=O)c1ccccc1 | 44.5% | – | 15.5% | < 10% | < 10% | > 50 µM | – | – | – | – | – | – | –
27 | Cc1ccc(S(=O)(=O)N(C)[C@@H](CCCNC(=N)N)C(=O)N[C@@H](CCCCN)C(=O)N[C@@H](C(N)=O)c2ccccc2)cc1 | 75.8% | 17.9 µM | < 10% | < 10% | 20.3% | > 50 µM | – | – | – | – | – | – | –
28 | CN([C@@H](CCCNC(=N)N)C(=O)N[C@@H](CCCCN)C(=O)N[C@H](C(N)=O)c1ccccc1)S(=O)(=O)c1ccccc1 | 75.3% | 17.6 µM | < 10% | < 10% | < 10% | > 50 µM | – | – | – | – | – | – | –

— ChEMBL document CHEMBL5346910, “N-sulfonyl peptide-hybrids as a new class of dengue virus protease inhibitors” (Eur J Med Chem, 2023)
